According to a compilation of properties of binary mixtures (doi:10.1080/00319104.2019.1566461):

Test: xn = mol fraction of the nth substance listed
Conditions: 101.3 kPa

CC(C)C(=O)O + CCOS(=O)(=O)[O-].CC[n+]1ccn(C)c1
speed of sound [m/s]
Conditions | 288.15 K | 293.15 K | 298.15 K | 303.15 K | 308.15 K | 313.15 K
x1 = 0.1122 | 1665.5 | 1652.8 | 1640 | 1627.4 | 1614.9 | 1602.6
x1 = 0.2295 | – | – | 1606.3 | 1593.5 | 1580.8 | 1568.2
x1 = 0.3297 | 1592.5 | – | 1566.2 | 1553.2 | 1540.2 | 1527.4
x1 = 0.4305 | 1554.5 | 1541.2 | – | 1514.4 | 1501.1 | 1488.1
x1 = 0.5464 | 1501.1 | 1487.4 | – | 1459.8 | 1446.2 | 1432.7
x1 = 0.6412 | – | 1439.4 | 1425.1 | 1411 | 1396.9 | 1383.1
x1 = 0.728 | 1398.5 | 1383.9 | 1369.1 | 1354.4 | 1339.9 | 1325.5
x1 = 0.8127 | 1331.5 | – | – | 1284.8 | 1269 | 1253.8
x1 = 0.9073 | 1256.7 | 1240 | 1222.8 | 1205.6 | 1188.9 | 1172.5
x1 = 0.9336 | 1233.1 | 1213.2 | – | – | 1162.5 | –
x1 = 0.9576 | 1200.2 | – | 1158.9 | 1141 | 1122.2 | 1100.7
x1 = 1 | 1159 | 1140.3 | 1121.2 | – | 1083.6 | 1065.1

CCOS(=O)(=O)[O-].CC[n+]1ccn(C)c1 + CC(C)C(=O)O
x2 = 0
Conditions | speed of sound [m/s]
293.15 K | 1686.8
298.15 K | 1671.4
303.15 K | 1661.9
308.15 K | 1649.6

CCOS(=O)(=O)[O-].CC[n+]1ccn(C)c1 + CCCCC(=O)O
x2 = 0
Conditions | speed of sound [m/s]
288.15 K | 1696.4
293.15 K | 1686.8
298.15 K | 1671.4
303.15 K | 1661.9
308.15 K | 1649.6
313.15 K | 1637.5

CCCCC(=O)O + CCOS(=O)(=O)[O-].CC[n+]1ccn(C)c1
speed of sound [m/s]
Conditions | 288.15 K | 293.15 K | 298.15 K | 303.15 K | 308.15 K | 313.15 K
x1 = 0.0974 | – | 1655.2 | 1642.4 | 1629.8 | 1617.2 | 1604.9
x1 = 0.1949 | 1636.9 | – | 1611 | 1598.1 | 1585.4 | 1572.9
x1 = 0.2975 | 1598.8 | – | 1572.4 | – | 1546.4 | –
x1 = 0.3947 | – | – | 1538.1 | 1524.8 | – | 1498.6
x1 = 0.495 | 1525 | 1511.5 | 1497.7 | 1484.1 | 1470.7 | 1457.3
x1 = 0.595 | – | – | 1455.3 | 1441.2 | – | 1413.8
x1 = 0.6941 | 1435.7 | 1421.3 | 1406.7 | 1392.3 | 1377.9 | 1363.7
x1 = 0.7905 | 1383 | 1367.9 | 1352.6 | 1337.5 | 1322.4 | 1307.5
x1 = 0.8965 | 1315 | 1298.6 | 1282 | 1265.6 | 1249.4 | 1233.2
x1 = 0.926 | 1295.1 | 1278.3 | 1261.3 | 1244.4 | 1227.7 | 1211.1
x1 = 0.9529 | 1277.5 | – | 1242.8 | – | 1208.3 | 1191.3
x1 = 1 | 1253.7 | 1235.8 | – | 1199.5 | – | 1163.9
